Earlier results, collected in US20100166887A1, “DIBENZO[b,e][1,4]DIAZEPINE MODULATORS OF DOPAMINE RECEPTORS, SEROTONIN RECEPTORS, ADRENERGIC RECEPTORS, ACETYLCHOLINE RECEPTORS, AND/OR HISTAMINE RECEPTORS” (Auspex Pharmaceuticals, Inc., priority 2008, published 2010).

Molecular target: human ether-a-gogo related gene (hERG) potassium channel (Homo sapiens, UniProt Q12809)
Conditions: Pearlstein et al., J. Med. Chem., 2003

Sequence of human ether-a-gogo related gene (hERG) potassium channel (Q12809 whole entry): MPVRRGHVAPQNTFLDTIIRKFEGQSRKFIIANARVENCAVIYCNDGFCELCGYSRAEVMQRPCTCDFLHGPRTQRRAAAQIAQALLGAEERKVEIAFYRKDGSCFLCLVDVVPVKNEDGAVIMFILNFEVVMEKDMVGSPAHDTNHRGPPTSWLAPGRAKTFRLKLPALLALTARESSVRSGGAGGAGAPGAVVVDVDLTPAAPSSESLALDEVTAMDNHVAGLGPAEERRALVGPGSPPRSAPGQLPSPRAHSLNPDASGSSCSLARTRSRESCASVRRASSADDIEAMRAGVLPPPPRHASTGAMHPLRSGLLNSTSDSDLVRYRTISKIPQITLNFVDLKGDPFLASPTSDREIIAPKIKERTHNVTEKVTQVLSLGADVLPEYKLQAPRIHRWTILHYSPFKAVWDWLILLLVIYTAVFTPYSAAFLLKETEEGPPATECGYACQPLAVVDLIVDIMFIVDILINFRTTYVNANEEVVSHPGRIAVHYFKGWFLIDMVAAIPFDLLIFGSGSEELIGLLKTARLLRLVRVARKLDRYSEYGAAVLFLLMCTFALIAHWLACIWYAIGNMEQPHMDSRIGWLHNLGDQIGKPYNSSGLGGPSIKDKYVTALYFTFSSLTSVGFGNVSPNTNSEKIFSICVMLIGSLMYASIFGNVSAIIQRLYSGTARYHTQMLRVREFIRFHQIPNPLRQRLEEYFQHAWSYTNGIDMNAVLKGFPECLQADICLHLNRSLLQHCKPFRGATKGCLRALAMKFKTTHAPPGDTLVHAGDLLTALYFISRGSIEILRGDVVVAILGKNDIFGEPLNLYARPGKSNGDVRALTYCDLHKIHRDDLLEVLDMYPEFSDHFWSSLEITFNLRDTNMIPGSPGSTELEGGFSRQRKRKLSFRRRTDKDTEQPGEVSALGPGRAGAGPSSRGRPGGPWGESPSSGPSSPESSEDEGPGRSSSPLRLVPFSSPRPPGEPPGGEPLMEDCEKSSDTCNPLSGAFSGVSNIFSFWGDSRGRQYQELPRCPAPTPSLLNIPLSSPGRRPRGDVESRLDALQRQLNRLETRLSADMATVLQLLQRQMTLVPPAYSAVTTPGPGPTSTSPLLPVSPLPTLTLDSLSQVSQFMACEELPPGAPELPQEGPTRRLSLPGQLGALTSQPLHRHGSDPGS

SMILES: Clc1ccc2c(c1)N=C(N1CCNCC1)c1ccccc1N2 [N-desmethyl clozapine, 8-Chloro-11-(4-piperazino)-5H-dibenzo[b,e][1,4]diazepine]
- inhibition of the hERG potassium channel: inhibits
